Reference: patent publication US4195171A, “Derivatives of an antibiotic XK-62-2 and process for the production thereof” (Abbott Laboratories, priority 1975, dated 1980)
Converted amounts (≈) assume the structure as drawn. Where two headings read alike, the source gives them in different places.

Assays:
Test in all cases: Antibacterial spectrum, MIC by agar dilution method
Format in all cases: cell-based
[1] = system: Salmonella enteritidis G-14; conditions: Salmonella enterica, pH 7.2, read-out: Minimum Inhibitory Concentration
Text: (§1) XK-62-2, 1-N-[L-(-)-α-hydroxy-γ-aminobutyryl] XK-62-2, Compounds (I-1), (I-2), (II-1) and (II-2) against various Gram-negative and Gram-positive bacteria determined by agar dilution method at pH 7.2.

Sarcina lutea ATCC 9341 = conditions: Micrococcus luteus, ATCC9341, pH 7.2, read-out: Minimum Inhibitory Concentration
Text: as §1

[2] = system: bacillus subtilis ATCC 6633; conditions: ATCC6633, pH 7.2, read-out: Minimum Inhibitory Concentration
Text: as §1

[3] = system: Pseudomonas aeruginosa E-2
Text: as §1

Escherichia coli Juhl = conditions: pH 7.2, read-out: Minimum Inhibitory Concentration
Text: as §1

Proteus mirabilis 1287 = conditions: pH 7.2, read-out: Minimum Inhibitory Concentration
Text: as §1

Proteus vulgaris 6897 = conditions: pH 7.2, read-out: Minimum Inhibitory Concentration
Text: as §1

[4] = system: Pseudomonas aeruginosa No. 12; conditions: pH 7.2, read-out: Minimum Inhibitory Concentration
Text: as §1

Escherichia coli T-2 = conditions: T2, pH 7.2, read-out: Minimum Inhibitory Concentration
Text: as §1

Serratia sp T-55 = system: Serratia sp T-55
Text: as §1

[5] = system: Salmonella typhimurium E-9; conditions: Salmonella enterica, pH 7.2, read-out: Minimum Inhibitory Concentration
Text: as §1

[6] = system: Pseudomonas aeruginosa KY 8563
Text: as §1
^7 produces gentamicin acetyltransferase Type III

[7] = system: Escherichia coli KY Z-338; conditions: KYZ338, pH 7.2, strain produces gentamicin adenyltransferase, read-out: Minimum Inhibitory Concentration
Text: as §1
(§2) ^4 produces gentamicin adenyltransferase

[8] = system: Klebsiella pneumoniae Y-58; conditions: Y58, pH 7.2, strain produces gentamicin adenyltransferase, read-out: Minimum Inhibitory Concentration
Text: as §1, §2

[9] = system: Klebsiella pneumoniae Y-60; conditions: Y60, pH 7.2, strain produces gentamicin adenyltransferase, read-out: Minimum Inhibitory Concentration
Text: as §1, §2

Escherichia coli KY 8348 = conditions: KY8348, pH 7.2, strain produces gentamicin acetyltransferase Type I, read-out: Minimum Inhibitory Concentration
Text: as §1
(§3) ^2 produces gentamicin acetyltransferase Type I

[10] = system: Pseudomonas aeruginosa KY 8511; conditions: KY8511, pH 7.2, strain produces gentamicin acetyltransferase Type I, read-out: Minimum Inhibitory Concentration
Text: as §1, §3

[11] = system: Pseudomonas aeruginosa KY Z-444; conditions: KYZ444, agar dilution, pH 7.2, strain produces 6N-acetyltransferase Type III, read-out: Minimum Inhibitory Concentration
Text: as §1
(§4) ^8 produces 6N-acetyltransferase Type III

[12] = system: Pseudomonas aeruginosa Z-445; conditions: Z445, pH 7.2, strain produces 6N-acetyltransferase Type III, read-out: Minimum Inhibitory Concentration
Text: as §1, §4

[13] = system: Pseudomonas aeruginosa KY 8519
Text: as §1
(§5) ^6 produces neomycinkanamycin phosphotransferase Type I and Type II

[14] = system: Pseudomonas aeruginosa KY 8512; conditions: KY8512, pH 7.2, strain produces neomycinkanamycin phosphotransferase Type I and Type II, read-out: Minimum Inhibitory Concentration
Text: as §1, §5

Providencia sp. 164 = conditions: pH 7.2, strain produces gentamicin acetyltransferase Type II, read-out: Minimum Inhibitory Concentration
Text: as §1
^9 produces gentamicin acetyltransferase Type II

[15] = system: Pseudomonas aeruginosa KY 8516
Text: as §1
(§6) ^1 produces kanamycin acetyltransferase

[16] = system: Pseudomonas aeruginosa KY 8510
Text: as §1, §6

[17] = system: Serratia marcescens POE 1065
Text: as §1, §6

[18] = system: Escherichia coli KY Z-343; conditions: KYZ343, pH 7.2, strain produces kanamycin acetyltransferase, read-out: Minimum Inhibitory Concentration
Text: as §1, §6

Escherichia coli KY 8320 = conditions: KY8320, pH 7.2, strain produces neomycinkanamycin phosphotransferase Type I, read-out: Minimum Inhibitory Concentration
Text: as §1
(§7) ^3 produces neomycinkanamycin phosphotransferase Type I

[19] = system: Pseudomonas aeruginosa KY 8518; conditions: KY8518, pH 7.2, strain produces neomycinkanamycin phosphotransferase Type I, read-out: Minimum Inhibitory Concentration
Text: as §1, §7

Escherichia coli KY 8349 = conditions: KY8349, pH 7.2, strain produces neomycinkanamycin phosphotransferase Type I, read-out: Minimum Inhibitory Concentration
Text: as §1, §7

Escherichia coli KY 8321 = conditions: KY8321, pH 7.2, strain produces gentamicin adenyltransferase and neomycinkanamycin phosphotransferase Type II, read-out: Minimum Inhibitory Concentration
Text: as §1
^5 produces gentamicin adenyltransferase and neomycinkanamycin
phosphotransferase Type II

[20] = E2, agar dilution, pH 7.2, read-out: Minimum Inhibitory Concentration
[21] = T55, agar dilution, pH 7.2, read-out: Minimum Inhibitory Concentration
[22] = KY8563, agar dilution, pH 7.2, strain produces gentamicin acetyltransferase Type III, read-out: Minimum Inhibitory Concentration
[23] = KY8519, agar dilution, pH 7.2, strain produces neomycinkanamycin phosphotransferase Type I and Type II, read-out: Minimum Inhibitory Concentration
[24] = KY8516, agar dilution, pH 7.2, strain produces kanamycin acetyltransferase, read-out: Minimum Inhibitory Concentration
[25] = KY8510, agar dilution, pH 7.2, strain produces kanamycin acetyltransferase, read-out: Minimum Inhibitory Concentration
[26] = POE1065, agar dilution, pH 7.2, strain produces kanamycin acetyltransferase, read-out: Minimum Inhibitory Concentration

SMILES	MIC (Sarcina lutea ATCC 9341) [µg/mL]	MIC [2] [µg/mL]	MIC (Proteus mirabilis 1287) [µg/mL]	MIC (Proteus vulgaris 6897) [µg/mL]	MIC [4] [µg/mL]	MIC (Escherichia coli T-2) [µg/mL]	MIC [5] [µg/mL]	MIC [7] [µg/mL]	MIC [8] [µg/mL]	MIC [9] [µg/mL]	MIC (Escherichia coli KY 8348) [µg/mL]	MIC [10] [µg/mL]	MIC [11] [µg/mL]	MIC [12] [µg/mL]	MIC [14] [µg/mL]	MIC (Providencia sp. 164) [µg/mL]	MIC [18] [µg/mL]	MIC (Escherichia coli KY 8320) [µg/mL]	MIC [19] [µg/mL]	MIC (Escherichia coli KY 8349) [µg/mL]	further results
CNCC1CCC(N)C(OC2C(N)CC(NC(=O)C(O)CN)C(OC3OCC(C)(O)C(NC)C3O)C2O)O1 (racemic) [1-N-(DL-α-hydroxy-β-aminopropionyl) XK-62-2, reference compound]	0.4 (≈ 0.726 µM)	0.2 (≈ 0.363 µM)	12.5 (≈ 22.7 µM)	12.5 (≈ 22.7 µM)	0.78 (≈ 1.42 µM)	0.4 (≈ 0.726 µM)	0.4 (≈ 0.726 µM)	0.2 (≈ 0.363 µM)	0.4 (≈ 0.726 µM)	0.4 (≈ 0.726 µM)	0.2 (≈ 0.363 µM)	1.56 (≈ 2.83 µM)	1.56 (≈ 2.83 µM)	3.12 (≈ 5.67 µM)	1.56 (≈ 2.83 µM)	6.25 (≈ 11.4 µM)	0.2 (≈ 0.363 µM)	0.4 (≈ 0.726 µM)	1.56 (≈ 2.83 µM)	0.1 (≈ 0.182 µM)	MIC ([1]; agar dilution): 6.25 µg/mL (≈ 11.4 µM); MIC [3, 20]: 3.12 µg/mL (≈ 5.67 µM); MIC (Escherichia coli Juhl; agar dilution): 0.78 µg/mL (≈ 1.42 µM); MIC (Serratia sp T-55; [21]): 1.56 µg/mL (≈ 2.83 µM); MIC [6, 22]: 3.12 µg/mL (≈ 5.67 µM); MIC [13, 23]: 6.25 µg/mL (≈ 11.4 µM); MIC [15, 24]: 3.12 µg/mL (≈ 5.67 µM); MIC [16, 25]: 3.12 µg/mL (≈ 5.67 µM); MIC [17, 26]: 0.78 µg/mL (≈ 1.42 µM); MIC (Escherichia coli KY 8321): 0.4 µg/mL (≈ 0.726 µM)
CC1(O)COC(OC2C(NC(=O)C(O)CN)CC(N)C(OC3OC(CN)CCC3N)C2O)C(O)C1N (racemic) [Compound I-1, 3"-N, 6'-N-didemethyl-1-N-(DL-α-hydroxy-β-aminopropionyl) XK-62-2]	0.78 (≈ 1.49 µM)	0.1 (≈ 0.191 µM)	12.5 (≈ 23.9 µM)	6.25 (≈ 12 µM)	0.4 (≈ 0.765 µM)	1.56 (≈ 2.99 µM)	0.78 (≈ 1.49 µM)	0.78 (≈ 1.49 µM)	0.78 (≈ 1.49 µM)	0.78 (≈ 1.49 µM)	0.4 (≈ 0.765 µM)	0.78 (≈ 1.49 µM)	1.56 (≈ 2.99 µM)	6.25 (≈ 12 µM)	0.78 (≈ 1.49 µM)	6.25 (≈ 12 µM)	0.4 (≈ 0.765 µM)	0.78 (≈ 1.49 µM)	0.78 (≈ 1.49 µM)	0.4 (≈ 0.765 µM)	MIC ([1]; agar dilution): 6.25 µg/mL (≈ 12 µM); MIC [3, 20]: 1.56 µg/mL (≈ 2.99 µM); MIC (Escherichia coli Juhl; agar dilution): 1.56 µg/mL (≈ 2.99 µM); MIC (Serratia sp T-55; T55, pH 7.2, read-out: Minimum Inhibitory Concentration): 3.12 µg/mL (≈ 5.97 µM); MIC [6, 22]: 1.56 µg/mL (≈ 2.99 µM); MIC ([13]; KY8519, pH 7.2, read-out: Minimum Inhibitory Concentration): 3.12 µg/mL (≈ 5.97 µM); MIC [15, 24]: 50 µg/mL (≈ 95.7 µM); MIC [16, 25]: 12.5 µg/mL (≈ 23.9 µM); MIC [17, 26]: 50 µg/mL (≈ 95.7 µM); MIC (Escherichia coli KY 8321): 1.56 µg/mL (≈ 2.99 µM)
CNCC1CCC(N)C(OC2C(N)CC(NC(=O)C(O)CN)C(OC3OCC(C)(O)C(N)C3O)C2O)O1 (racemic) [II-1, 3"-N-demethyl-1-N-(DL-α-hydroxy-β-aminopropionyl) XK-62-2]	1.56 (≈ 2.91 µM)	0.2 (≈ 0.373 µM)	25 (≈ 46.6 µM)	12.5 (≈ 23.3 µM)	0.78 (≈ 1.45 µM)	1.56 (≈ 2.91 µM)	0.78 (≈ 1.45 µM)	0.78 (≈ 1.45 µM)	0.78 (≈ 1.45 µM)	1.56 (≈ 2.91 µM)	0.4 (≈ 0.745 µM)	1.56 (≈ 2.91 µM)	1.56 (≈ 2.91 µM)	6.25 (≈ 11.6 µM)	1.56 (≈ 2.91 µM)	25 (≈ 46.6 µM)	0.4 (≈ 0.745 µM)	1.56 (≈ 2.91 µM)	1.56 (≈ 2.91 µM)	0.4 (≈ 0.745 µM)	MIC [1]: 3.12 µg/mL (≈ 5.81 µM); MIC ([3]; E2, pH 7.2, read-out: Minimum Inhibitory Concentration): 3.12 µg/mL (≈ 5.81 µM); MIC (Escherichia coli Juhl): 3.12 µg/mL (≈ 5.81 µM); MIC (Serratia sp T-55; [21]): 1.56 µg/mL (≈ 2.91 µM); MIC ([6]; KY8563, pH 7.2, read-out: Minimum Inhibitory Concentration): 3.12 µg/mL (≈ 5.81 µM); MIC [13, 23]: 6.25 µg/mL (≈ 11.6 µM); MIC ([15]; KY8516, pH 7.2, read-out: Minimum Inhibitory Concentration): 3.12 µg/mL (≈ 5.81 µM); MIC ([16]; KY8510, pH 7.2, read-out: Minimum Inhibitory Concentration): 3.12 µg/mL (≈ 5.81 µM); MIC ([17]; POE1065, pH 7.2, read-out: Minimum Inhibitory Concentration): 3.12 µg/mL (≈ 5.81 µM); MIC (Escherichia coli KY 8321): 1.56 µg/mL (≈ 2.91 µM)
